Tests used:
Acinetobacter strains = experiment: MIC assays of Example 3, Tables 3 and 4 taken together; assay type: cell-based, Acinetobacter baumannii and Acinetobacter Iwoffii; details: in one Acinetobacter strain or another
Experimental: (§1) MIC assays as described in Example 1 were conducted using the following Acinetobacter strains, antibiotics and concentrations of OligoCF-5/20 as described in Tables 3 and 4.
(§2) • V19* 7789 Acinetobacter baumannii • V20* 8065 Acinetobacter Iwoffii MDR Strains • V4* MDR ACB (Libya) Acinetobacter baumannii • V9* (Egypt) Acinetobacter baumannii • V10* (Egypt) Acinetobacter Iwoffii • V22* 6056 Acinetobacter Iwoffii
Further MIC assays were conducted with the various strains and antibiotics recited in Table 4 using the following protocol.

[1] = system: Staphylococcus aureus NCTC 6571 MIC CONTROL STRAIN (Oxford Staph.); experiment: Minimum Inhibitory Concentration assay (96-well, CAMHB), Example 1; assay type: cell-based; details: S. Aur
[2] = system: Multidrug resistant Acinetobacter baumannii isolated from a source in Libya; experiment: Minimum Inhibitory Concentration assay (96-well, CAMHB), Examples 1 and 2
Experimental: Antibiotics were diluted in cation-adjusted Mueller-Hinton broth (CAMHB) or CAMHB with G-fragments (Oligo CF-5/20 90-95% G residues) at 2%, 6% or 10%.
Bacterial cultures at 0.5 McFarland standard were diluted ten-fold in CAMHB and 5 μl added to the microtiter plates containing the antibiotic serial dilutions. Plates were wrapped in parafilm and incubated at 37° C. for 16-20 hours. MIC values for each antibiotic were determined as the lowest concentration at which there was no visible growth.

[3] = system: Acinetobacter baumannii strains V9, V19; experiment: MIC assays as described in Example 1, Example 3 (Table 3); assay type: cell-based; details: strain V19
Experimental: as §1, §2

[4] = +2% G (G-fragments Oligo CF-5/20)
[5] = +6% G (G-fragments Oligo CF-5/20)
[6] = +10% G (G-fragments Oligo CF-5/20)
[7] = A. bau, +2% G (G-fragments Oligo CF-5/20)
[8] = A. bau, +6% G (G-fragments Oligo CF-5/20)
[9] = A. bau, +10% G (G-fragments Oligo CF-5/20)

Compound: CC[C@H]1OC(=O)[C@H](C)[C@@H](O[C@H]2C[C@@](C)(OC)[C@@H](O)[C@H](C)O2)[C@H](C)[C@@H](O[C@@H]2O[C@H](C)C[C@H](N(C)C)[C@H]2O)[C@](C)(O)C[C@@H](C)CN(C)[C@H](C)[C@@H](O)[C@]1(C)O [azithromycin]
- effect of increasing concentrations of OligoCF-5/20 (0-10%) on MIC values (Tables 3 and 4) (Acinetobacter strains): decreases MIC values
- MIC value, Ceftazidime with azithromycin at 4 μg/ml ([1]; 0 G (no G-fragments)): <4 μg/ml Az
- MIC value, Ceftazidime with azithromycin at 8 μg/ml ([1]; 0 G (no G-fragments)): <8 μg/ml Az
- MIC value, Ciprofloxacin with azithromycin at 4 μg/ml ([1]; 0 G (no G-fragments)): <4 μg/ml Az
- MIC value, Ciprofloxacin with azithromycin at 8 μg/ml ([1]; 0 G (no G-fragments)): <8 μg/ml Az
- MIC value, Ceftazidime with azithromycin at 4 μg/ml [1, 4]: <4 μg/ml Az
- MIC value, Ceftazidime with azithromycin at 8 μg/ml [1, 4]: <8 μg/ml Az
- MIC value, Ciprofloxacin with azithromycin at 4 μg/ml [1, 4]: <4 μg/ml Az
- MIC value, Ciprofloxacin with azithromycin at 8 μg/ml [1, 4]: <8 μg/ml Az
- MIC value, Ceftazidime with azithromycin at 4 μg/ml [1, 5]: <4 μg/ml Az
- MIC value, Ceftazidime with azithromycin at 8 μg/ml [1, 5]: <8 μg/ml Az
- MIC value, Ciprofloxacin with azithromycin at 4 μg/ml [1, 5]: <4 μg/ml Az
- MIC value, Ciprofloxacin with azithromycin at 8 μg/ml [1, 5]: <8 μg/ml Az
- MIC value, Ceftazidime with azithromycin at 4 μg/ml [1, 6]: <4 μg/ml Az
- MIC value, Ceftazidime with azithromycin at 8 μg/ml [1, 6]: <8 μg/ml Az
- MIC value, Ciprofloxacin with azithromycin at 4 μg/ml [1, 6]: <4 μg/ml Az
- MIC value, Ciprofloxacin with azithromycin at 8 μg/ml [1, 6]: <8 μg/ml Az
- inhibition of growth by azithromycin combined with G-fragments ([2]; 4 μg/ml azithromycin and 2% or more G-fragments): completely inhibited
- MIC value, Ceftazidime with azithromycin at 4 μg/ml [2, 7]: <4 μg/ml Az
- MIC value, Ceftazidime with azithromycin at 8 μg/ml [2, 7]: <8 μg/ml Az
- MIC value, Ciprofloxacin with azithromycin at 8 μg/ml [2, 7]: <8 μg/ml Az
- MIC value, Ciprofloxacin with azithromycin at 4 μg/ml: azithromycin part of the inhibitory combination ([2]; A. bau, +2% G (G-fragments Oligo CF-5/20), together with 64 Cpr): 4 µg/mL
- MIC value, Ceftazidime with azithromycin at 4 μg/ml [2, 8]: <4 μg/ml Az
- MIC value, Ceftazidime with azithromycin at 8 μg/ml [2, 8]: <8 μg/ml Az
- MIC value, Ciprofloxacin with azithromycin at 4 μg/ml [2, 8]: <4 μg/ml Az
- MIC value, Ciprofloxacin with azithromycin at 8 μg/ml [2, 8]: <8 μg/ml Az
- MIC value, Ceftazidime with azithromycin at 4 μg/ml [2, 9]: <4 μg/ml Az
- MIC value, Ceftazidime with azithromycin at 8 μg/ml [2, 9]: <8 μg/ml Az
- MIC value, Ciprofloxacin with azithromycin at 4 μg/ml [2, 9]: <4 μg/ml Az
- MIC value, Ciprofloxacin with azithromycin at 8 μg/ml [2, 9]: <8 μg/ml Az
- effect of OligoCF-5/20 on the MIC value for azithromycin ([2]; Acinetobacter organism, azithromycin 8 or 4 μg/ml): greatly reduces
- inhibition of growth by azithromycin in the absence of G-fragments ([2]; azithromycin at 4 μg/ml and at 8 μg/ml, no G-fragments): not capable of inhibiting growth

Compound: C[C@@H](O)[C@H]1C(=O)N2C(C(=O)O)=C(SCCN=CN)C[C@H]12 [imipenem]
- effect of increasing concentrations of OligoCF-5/20 on MIC values (Table 3) [3]: no effect

Compound: CC[C@H]1OC(=O)[C@H](C)[C@@H](O[C@H]2C[C@@](C)(OC)[C@@H](O)[C@H](C)O2)[C@H](C)[C@@H](O[C@@H]2O[C@H](C)C[C@H](N(C)C)[C@H]2O)[C@](C)(O)C[C@@H](C)/C(=N\OCOCCOC)[C@H](C)[C@@H](O)[C@]1(C)O [roxithromycin]
- effect of increasing concentrations of OligoCF-5/20 (0-10%) on MIC values (Tables 3 and 4) (Acinetobacter strains): decreases MIC values
